Measured values from publication PMC12441774, “Proteolytic stabilization of a spider venom peptide results in an orally active bioinsecticide” (Pest Management Science, 2025).
Bridges are numbered along the chain shown (N, C = ends). Where no end group is shown, it is not given here.

Tests used:
[1] = Protease stability, commercial trypsin digestion; assay type: in vitro ADME, bovine; settings: bovine trypsin 1 mg mL^−1 in 50 mM Tris–HCl pH 8.8, 100 mM NaCl; 5 μL added to 200 μL of 10.7 mg mL^−1 peptide; room temperature; HPLC; read-out: Degradation half life, Trypsin
Protocol: (§1) For commercial enzyme digestion studies, bovine trypsin (Sigma‐Aldrich, St. Louis, MO) was prepared at a concentration of 1 mg mL^−1 in 50 mM Tris–HCl pH 8.8, 100 mM NaCl. Bovine chymotrypsin (Sigma‐Aldrich) was prepared at a concentration of 1 mg ml^−1 in 50 mM MES pH 6.0, 100 mM NaCl. For each digestion condition, 5 μL of trypsin or chymotrypsin solution were added to 200 μL of 10.7 mg mL^−1 peptide and incubated at room temperature. Samples were taken at defined timepoints, sterile filtered, and analyzed immediately by HPLC.

bovine trypsin = target: T1, bovine trypsin (Bos taurus, UniProt P00760); experiment: Protease stability, commercial trypsin digestion; assay type: in vitro ADME; settings: for Degradation half time ratio to Ta1b, Trypsin: ratio of half lives with bovine trypsin
T1 construct: purchased Sigma-Aldrich
T1 sequence (P00760 24-246): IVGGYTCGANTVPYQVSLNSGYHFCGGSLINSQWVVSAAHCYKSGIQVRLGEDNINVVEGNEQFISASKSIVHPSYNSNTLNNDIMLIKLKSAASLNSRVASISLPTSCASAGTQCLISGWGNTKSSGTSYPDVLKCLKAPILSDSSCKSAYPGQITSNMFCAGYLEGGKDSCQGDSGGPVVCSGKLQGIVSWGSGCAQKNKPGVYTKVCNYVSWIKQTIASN
Protocol: as §1

[2] = Gut enzyme digestion, M. sexta gut extract; assay type: in vitro ADME, Manduca sexta; settings: for Fold stability improvement over Ta1b: gut extract stability testing, limit of testing 50‐fold; for half-life: M. sexta fifth instar gut extract diluted 10× in 30 mM Tris–HCl pH 8.8, 0.5–1 mg mL^−1 peptide, HPLC, single exponential decay fit, read-out: Degradation half life, Gut extract; for Degradation half time ratio to Ta1b, Gut extract: ratio of half lives in M. sexta gut extract
Protocol: (§2) Larvae of H. zea, Spodoptera frugiperda Smith and Abbot, 1797, and Trichoplusia ni Hubner, 1802 were purchased from Benzon Research and reared to fifth instar on general purpose lepidopteran diet. Manduca sexta L. were purchased from Carolina Biological Supply (Burlington, NC) and reared to fifth instar on the supplied diet. Larvae were anesthetized on ice for 30 min, pinned on a dissection plate, and opened laterally with microdissection scissors. The foregut, midgut and hindgut were excised and washed using sterile water to remove any excess hemolymph and then transferred into a chilled 2‐mL microcentrifuge tube. The extracts were spun in a microcentrifuge at 10000 g to pellet the solids. The liquid fractions were carefully removed, sterile filtered, and stored at −80°C for future use.
(§3) For gut enzyme digestion studies, gut extract was diluted 10× with the dilution buffer (30 mM Tris–HCl, pH 8.8) and 0.5–1 mg mL^−1 of Ta1b. Samples were taken from the digestion mixture at defined timepoints and mixed with a 1:6 ratio of stop buffer (Tris–HCl pH 1–2) to halt further digest of the peptide. Samples were sterile filtered and analyzed by HPLC to determine peptide integrity and concentration.

Myzus persicae = experiment: Greenhouse trial on green peach aphids on cucumbers; assay type: in vivo; settings: Admire Pro 0.088 L product ha^−1; four applications
Protocol: Contact activity of Ta1b‐QA on green peach aphids (Myzus persicae (Sulzer, 1776)) on cucumbers in the greenhouse was performed in cooperation with A.C.D.S Research in North Rose, NY. The study was a randomized complete block design (RCBD), with treatments replicated six times, plots consisting of three pots each containing two to three plants. […] Treatments were applied four times, at 6–8‐day intervals, with a backpack CO2 sprayer in a spray volume of 374 L ha^−1. The number of aphids per plant was counted at regular intervals (0, 4, 11, 17, 23 and 29 d after first application). Cumulative insect‐days (defined as the area under the insect population curve as a measure of pest pressure) were calculated based on those six rating dates, then converted to % control relative to the untreated check using Abbott's formula. One replicate was removed due to a lack of pest pressure in the untreated check. Data were analyzed by one‐way ANOVA followed by a Tukey HSD LSM test with significance set at P < 0.05 (GraphPad Prism).

[3] = Gut enzyme digestion, H. zea gut extract; assay type: in vitro ADME, Helicoverpa zea; settings: extract diluted ten-fold, single exponential decay fit, HPLC
Protocol: as §2, §3

[4] = Gut enzyme digestion, S. frugiperda gut extract; assay type: in vitro ADME, Spodoptera frugiperda; settings: extract diluted ten-fold, single exponential decay fit, HPLC
Protocol: as §2, §3

[5] = Gut enzyme digestion, T. ni gut extract; assay type: in vitro ADME, Trichoplusia ni; settings: extract diluted ten-fold, single exponential decay fit, HPLC
Protocol: as §2, §3

[6] = Gut enzyme digestion, stated jointly for three lepidopteran gut extracts; assay type: in vitro ADME, H. zea, S. frugiperda, T. ni; settings: 10‐fold diluted gut extract, single exponential decay, followed up to 21 h
Protocol: as §2, §3

Musca domestica = experiment: Insecticidal activity by injection into adult house flies; assay type: in vivo; settings: adult house flies 12–18 mg, 0.5 μL into dorsal thorax, mortality 24 h post‐injection, 10 flies per treatment, at least triplicate, four‐parameter sigmoidal fit
Protocol: Adult house flies (Musca domestica L.) were immobilized with CO2 gas and those with an average weight of 12–18 mg were selected for injection. Purified solutions of Ta1b and variants were diluted in water and injected into the dorsal thorax with a 1‐cc syringe and 30‐gauge needle using a hand microapplicator (Burkard, Rickmansworth, England). Each adult was injected with 0.5 μL of solution with 10 flies per treatment in at least triplicate. Water was used as a negative control. Flies were placed into a container with moist filter paper and scored for mortality 24 h post‐injection. Ten non‐injected flies were placed in a container to assess CO2 mortality. Response curves were fitted with a four‐parameter sigmoidal function (GraphPad Prism, Boston, MA) to determine LD50 values.
(§4) To compare the potency of Ta1b, we also injected the following active ingredients into M. domestica and H. zea: GS‐ω/κ (Spear, Vestaron), spinosad (Monterey Garden Insect Spray, Monterey), thiamethoxam (Optigard® Flex, Syngenta), and chlorantraniliprole (ALTACOR®, FMC).

Helicoverpa zea = experiment: Insecticidal activity by injection into fourth instar larvae; assay type: in vivo; settings: fourth instar larvae, 1 μL into penultimate proleg, mortality 24 h after injection, eight larvae per treatment, at least triplicate
Protocol: Helicoverpa zea (Boddie, 1850) larvae were reared from eggs (Benzon, Carlisle, PA) to fourth instar on general purpose lepidopteran diet (F9772, Frontier Agricultural Sciences, Newark, DE). Pre‐weighed larvae immobilized on ice were injected into their penultimate proleg as described for M. domestica with 1 μL solution and eight larvae per treatment in at least triplicate. After injection, larvae were placed in a well of a 32‐well tray filled with 5 mL lepidopteran diet. The trays were then placed in an incubator at 28° C with 16:8 h light: dark cycle and evaluated 24 h after injection for mortality.
as §4

Pieris brassicae = experiment: Field trial on cabbage caterpillar on cabbage; assay type: in vivo; settings: spinosad (Laser, 96 g product ha^−1) or Btk alone; two applications 7 days apart; four replicate plots
Protocol: A dose–response of U1‐AGTX‐Ta1b‐QA (Ta1b‐QA) combined with Bacillus thuringiensis subsp. kurstaki (Btk; DiPel DF®, Valent) was performed by Agricola 2000 in a randomized complete block design (RCBD) on cabbage caterpillar (Pieris brassicae L.) on cabbage in Palagiano, Italy with four replicate plots of 1 × 15 m in open‐field containing 25 plants each. Treatments included an untreated check, three rates (22, 34, 45 g AI ha^−1) of an 8.5% w/w spray‐dried sample of Ta1b‐QA together with Btk (DiPel DF®, Valent, 0.5 kg product ha^−1), and the reference standard spinosad (Laser®, Corteva, 96 g product ha^−1). Treatments were applied two times, 7 days apart, with a backpack CO2 sprayer in a spray volume of 800 L ha^−1. […] Data were analyzed by one‐way ANOVA followed by a Tukey HSD LSM test with significance set at P < 0.05 (GraphPad Prism).

H. zea neonates = experiment: Insecticidal activity by foliar spray (lettuce leaf disk feeding); assay type: in vivo, Helicoverpa zea
Protocol: Organic romaine lettuce was cut into 30‐mm diameter disks and sterilized with a 140‐ppm bleach solution followed by a triple rinse in water. The lettuce disks were then sprayed on either side using a Potter Tower Sprayer (Burkard, Rickmansworth, England) with insecticidal solutions, allowing them to dry between sprays. Once fully sprayed and dried, disks were placed into an arena, which was a 32‐well rearing tray containing 5 mL of 1% w/v agar. One leaf disk was placed in each well and a single neonate H. zea was applied to each of the 12 leaf discs per treatment with four experimental replicates per treatment. The trays were then placed in a 28° C incubator with a 16:8 h light: dark cycle. Mortality was evaluated 4 days after application.

## EPDEICRARMTNKEFTYASNVCNNCGDQVAACEAECFRNDVYTACHEAQKG (disulfide 6-36, 22-32, 25-45) [Mutant K18A]
[1]
  half-life at 10.4 mg mL^-1: 19.9 h
Bovine trypsin
  Degradation half time ratio to Ta1b, Trypsin: 4.1

## EPDEICRNRMTNKEFTYKSNVCNNCGDQVAACEAECFRNDVYTACHEAQKG (disulfide 6-36, 22-32, 25-45) [Mutant A8N]
[2]
  Fold stability improvement over Ta1b: 1.8

## EPDEICRAHMTNKEFTYKSNVCNNCGDQVAACEAECFRNDVYTACHEAQKG (disulfide 6-36, 22-32, 25-45) [Mutant R9H]
[2]
  Fold stability improvement over Ta1b: 16.2

## O=[N+]([O-])NC1=NCCN1Cc1ccc(Cl)nc1 [imidacloprid]
Myzus persicae
  Mean % control of cumulative insect‐days relative to the untreated check, reference standard: 90.4%

## EPDEICAARMTNKEFTYKSNVCNNCGDQVAACEAECFRNDVYTACHEAQKG (disulfide 6-36, 22-32, 25-45) [Mutant R7A]
[1]
  half-life at 10.4 mg mL^-1: 2.2 h
Bovine trypsin
  Degradation half time ratio to Ta1b, Trypsin: 0.5

## EPDEICRAQMTNKEFTYKSNVCNNCGDQVAACEAECFRNDVYTACHEAQKG (disulfide 6-36, 22-32, 25-45) [Mutant R9Q]
[2]
  Fold stability improvement over Ta1b: >50
[3]
  Degradation half-life in H. zea gut extract: could not be fit to an exponential decay
[4]
  Degradation half-life in S. frugiperda gut extract: could not be fit to an exponential decay
[5]
  Degradation half-life in T. ni gut extract: could not be fit to an exponential decay
[6]
  Degradation half‐lives in gut extracts from H. zea, S. frugiperda, and T. ni: too little degradation to calculate half‐lives even after 21 h

## CNC(=O)c1cc(Cl)cc(C)c1NC(=O)c1cc(Br)nn1-c1ncccc1Cl [Chlorantraniliprole, chlorantraniliprole]
Musca domestica
  Insecticidal LD50, injection, M. domestica (95% CI): no activity
Helicoverpa zea
  Insecticidal LD50, injection, H. zea (95% CI): 0.22 (0.15–0.37) nmol g^−1

## EPDEICRARMTNAEFTYKSNVCNNCGDQVAACEAECFRNDVYTACHEAQKG (disulfide 6-36, 22-32, 25-45) [Mutant K13A]
[1]
  half-life at 10.4 mg mL^-1: 4.9 h
Bovine trypsin
  Degradation half time ratio to Ta1b, Trypsin: 1.0

## CN1COCN(Cc2cnc(Cl)s2)/C1=N\[N+](=O)[O-] [Thiamethoxam, thiamethoxam]
Musca domestica
  Insecticidal LD50, injection, M. domestica (95% CI): 23.2 (18.1–29.6) nmol g^−1
Helicoverpa zea
  Insecticidal LD50, injection, H. zea (95% CI): 31.9 (20.2–52.1) nmol g^−1

## spinosad
Musca domestica
  Insecticidal LD50, injection, M. domestica (95% CI): 1.5 (0.9–2.4) nmol g^−1
Helicoverpa zea
  Insecticidal LD50, injection, H. zea (95% CI): 0.20 (0.14–0.31) nmol g^−1
Pieris brassicae
  Mean % control of larvae relative to the untreated check, comparators: 57.8%

## EPDEICRANMTNKEFTYKSNVCNNCGDQVAACEAECFRNDVYTACHEAQKG (disulfide 6-36, 22-32, 25-45) [Mutant R9N]
[2]
  Fold stability improvement over Ta1b: >50

## EPDEICRARMTNKEFTYKSNVCNNCGDQVAACEAECFANDVYTACHEAQKG (disulfide 6-36, 22-32, 25-45) [Mutant R38A]
[1]
  half-life at 10.4 mg mL^-1: 31 h
Bovine trypsin
  Degradation half time ratio to Ta1b, Trypsin: 6.5
[2]
  half-life: 0.215 h
  Degradation half time ratio to Ta1b, Gut extract: 9.2

## GSQYCVPVDQPCSLNTQPCCDDATCTQERNENGHTVYYCRA (disulfide 5-20, 12-25, 19-39) [GS‐ω/κ, reference compound]
Musca domestica
  Insecticidal LD50, injection, M. domestica (95% CI): 0.19 (0.17–0.21) nmol g^−1
Helicoverpa zea
  Insecticidal LD50, injection, H. zea (95% CI): 5.9 (4.9–6.9) nmol g^−1
H. zea neonates; 100 μg cm^−2, neonates, compared to untreated
  Day 4 mortality of H. zea on treated lettuce leaves, peptide alone: significant activity on its own
H. zea neonates; 100 μg cm^−2 peptide with sublethal Btk 0.17 μg cm^−2, neonates
  Day 4 mortality of H. zea on treated lettuce leaves, peptide in combination with Btk: activity is increased
[2]; M. sexta gut extract, HPLC peak
  Degradation when incubated with gut extract (HPLC): did not show any degradation

## H-ICRAQMTNKEFTYKSNVCNNCGDQVAACEAECFRNDVYAACHEAQKG-OH (disulfide 2-32, 18-28, 21-41)
other
  Reduction in melting temperature vs Ta1b-QA: 14.2 °C

## EPDEICRSRMTNKEFTYKSNVCNNCGDQVAACEAECFRNDVYTACHEAQKG (disulfide 6-36, 22-32, 25-45) [Mutant A8S]
[2]
  Fold stability improvement over Ta1b: 12.1

## EPDEICRAAMTNKEFTYKSNVCNNCGDQVAACEAECFRNDVYTACHEAQKG (disulfide 6-36, 22-32, 25-45) [Mutant R9A]
[1]
  half-life at 10.4 mg mL^-1: > 100 h
Bovine trypsin; pH 8.8, room temperature, HPLC chromatogram
  Digestion by bovine trypsin (HPLC): complete abrogation of Ta1b digestion
Bovine trypsin
  Degradation half time ratio to Ta1b, Trypsin: >20
[2]
  half-life: 4.97 h
  Degradation half time ratio to Ta1b, Gut extract: 213

## EPDEICRARMPNKEFTYKSNVCNNCGDQVAACEAECFRNDVYTACHEAQKG (disulfide 6-36, 22-32, 25-45) [Mutant T11P]
[2]
  Fold stability improvement over Ta1b: >50
